In patent US20130302442A1, “METHODS OF USING (4S,4AS,5AR,12AS)-4-DIMETHYLAMINO-3,10,12,12A-TETRAHYDROXY-7-[(METHOXY(METHYL)AMINO)-METHYL]-1,11-DIOXO-1,4,4A,5,5A,6,11,12A-OCTAHYDRO-NAPHTHACENE-2-CARBOXYLIC ACID AMIDE” (priority 2012, published 2013):
Values after ≈ are worked out from the molar mass of the structure shown. Where two headings read alike, the source gives them in different places.

Assays:
[1] = test system: Helicobacter pylori; assay: In vitro MIC against multiple isolates of H. pylori; format: cell-based; conditions: for MIC: read-out: MIC
[2] = test system: Helicobacter pylori; conditions: H. pylori reference strain 3718, ATCC 43504; Clinical and Laboratory Standards Institute quality control range; cited from earlier work
[3] = test system: Bacteroides ovatus; assay: In vitro MIC testing against anaerobic bacteria; format: cell-based; conditions: Bacteroides ovatus 3508, read-out: MIC
[4] = test system: K. pneumoniae; assay: In vitro MIC testing, antibacterial spectrum of activity; format: cell-based
[5] = test system: Clostridium perfringens; assay: microbe, parasite or virus in culture; format: cell-based
[6] = test system: Lactobacillus acidophilus; assay: In vitro MIC testing against anaerobic bacteria; format: cell-based; conditions: Lactobacillus acidophilus 0681
[7] = test system: Bifidobacterium infantis; assay: In vitro MIC testing against anaerobic bacteria; format: cell-based; conditions: ATCC15702; Bifidobacterium infantis 3966, ATCC 15702
[8] = test system: E. cloacae; assay: In vitro MIC testing, antibacterial spectrum of activity; format: cell-based; conditions: Enterobacter cloacae; E. cloacae (30 isolates)
[9] = test system: S. agalactiae; assay: as above; format: cell-based; conditions: Streptococcus agalactiae
[10] = test system: Lactobacillus casei; assay: In vitro MIC testing against anaerobic bacteria; format: cell-based; conditions: Lacticaseibacillus casei, ATCC393; Lactobacillus casei 1722, ATCC 393
[11] = test system: P. granulosum; assay: In vitro MIC testing, antibacterial spectrum of activity; format: cell-based; conditions: P. granulosum [clinical isolates] (3 isolates)
[12] = test system: Bifidobacterium brevi; assay: In vitro MIC testing against anaerobic bacteria; format: cell-based; conditions: ATCC15698; Bifidobacterium brevi 3967, ATCC 15698
[13] = test system: Bifidobacterium bifidum; assay: In vitro MIC testing against anaerobic bacteria; format: cell-based; conditions: ATCC15696; Bifidobacterium bifidum 3965, ATCC 15696
[14] = test system: P. avidum; assay: In vitro MIC testing, antibacterial spectrum of activity; format: cell-based; conditions: P. avidum [clinical isolates] (4 isolates)
[15] = test system: P. acnes; assay: as above; format: cell-based, Propionibacterium acnes; conditions: Cutibacterium acnes
[16] = test system: Prevotella spp.; assay: In vitro MIC testing against anaerobic bacteria; format: cell-based
[17] = test system: Streptococcus intermedius; assay: In vitro MIC testing against anaerobic bacteria; format: cell-based; conditions: ATCC27335; Streptococcus intermedius 1203, ATCC 27335
[18] = test system: S. haemolyticus; assay: In vitro MIC testing, antibacterial spectrum of activity; format: cell-based; conditions: Staphylococcus haemolyticus; S. haemolyticus (33 isolates); read-out: MIC90
[19] = test system: Prevotella melaninogenica; assay: In vitro MIC testing against anaerobic bacteria; format: cell-based; conditions: Prevotella melaninogenica 3443, read-out: MIC
[20] = test system: Veillonella parvula; assay: In vitro MIC testing against anaerobic bacteria; format: cell-based; conditions: ATCC17745; Veillonella parvula 1272, ATCC 17745
[21] = test system: Lactobacillus plantarum; assay: In vitro MIC testing against anaerobic bacteria; format: cell-based; conditions: Lactiplantibacillus plantarum, ATCC39268; Lactobacillus plantarum 2791, ATCC 39268
[22] = test system: P. aeruginosa; assay: In vitro MIC testing, antibacterial spectrum of activity; format: cell-based; conditions: Pseudomonas aeruginosa; P. aeruginosa (11 isolates)
[23] = test system: Salmonella Spp.; assay: as above; format: cell-based; conditions: Salmonella
[24] = test system: E. faecium; assay: as above; format: cell-based; conditions: Enterococcus faecium
[25] = test system: E. coli; assay: as above; format: cell-based; conditions: Escherichia coli; E. coli (33 isolates); read-out: MIC90
[26] = test system: Bifidobacterium longum; assay: In vitro MIC testing against anaerobic bacteria; format: cell-based; conditions: ATCC15707; Bifidobacterium longum 3968, ATCC 15707
[27] = Klebsiella pneumoniae, K. pneumoniae (31 isolates)
[28] = P. acnes [clinical isolates] (55 isolates)

For Cc1ncc([N+](=O)[O-])n1CCO [Metronidazole, metronidazole], the “MIC Range” value ([1]; H. pylori clinical isolate summary) was “≦0.03-64 μg/mL”, the MIC ([1]; Helicobacter pylori, ATCC43504, H. pylori reference strain, culture No. 3718, ATCC 43504) was 64 µg/mL (≈ 374 µM) and the MIC ([1]; Helicobacter pylori, ATCC700824, H. pylori reference strain, culture No. 3719, ATCC 700824) was 1 µg/mL (≈ 5.84 µM). The MIC ([1]; Helicobacter pylori, ATCCBAA945, H. pylori reference strain, culture No. 3720, ATCC BAA-945) was 1 µg/mL (≈ 5.84 µM), the MIC ([1]; Helicobacter pylori, H. pylori clinical isolate, culture No. 4368) was 0.25 µg/mL (≈ 1.46 µM) and the MIC ([1]; Helicobacter pylori, H. pylori clinical isolate, culture No. 4369) was 0.5 µg/mL (≈ 2.92 µM). The MIC ([1]; Helicobacter pylori, H. pylori clinical isolate, culture No. 4370) was 0.12 µg/mL (≈ 0.701 µM), the MIC ([1]; Helicobacter pylori, H. pylori clinical isolate, culture No. 4371) was 1 µg/mL (≈ 5.84 µM) and the MIC ([1]; Helicobacter pylori, H. pylori clinical isolate, culture No. 4372) was 0.25 µg/mL (≈ 1.46 µM). It also gave an MIC ([1]; Helicobacter pylori, H. pylori clinical isolate, culture No. 4374) of 0.12 µg/mL (≈ 0.701 µM), an MIC ([1]; Helicobacter pylori, H. pylori clinical isolate, culture No. 4375) of 0.12 µg/mL (≈ 0.701 µM) and an MIC ([1]; Helicobacter pylori, H. pylori clinical isolate, culture No. 4377) of 1 µg/mL (≈ 5.84 µM). The MIC ([1]; Helicobacter pylori, H. pylori clinical isolate, culture No. 4503) was no more than 0.03 µg/mL, the MIC ([1]; Helicobacter pylori, H. pylori clinical isolate, culture No. 4504) was no more than 0.03 µg/mL and the MIC90 ([1]; Helicobacter pylori, H. pylori, MIC for 90% of clinical test isolates, read-out: MIC90) was 1 µg/mL (≈ 5.84 µM). For the same compound, the MIC50 ([1]; Helicobacter pylori, read-out: MIC50) was 0.12 µg/mL (≈ 0.701 µM) and the “MIC, CLSI Quality Control Range” value [2] was 64 to 256 µg/mL.

In the case of CN(C)[C@@H]1C(O)=C(C(N)=O)C(=O)[C@@]2(O)C(O)=C3C(=O)c4c(O)cccc4[C@@](C)(O)[C@H]3C[C@@H]12 [Tetracycline, tetracycline], the MIC [3] is reported as 0.5 µg/mL (≈ 1.13 µM), the “MIC Range” value ([4]; K. pneumoniae [tetS] (7 isolates)) is reported as 0.5 to 4 µg/mL and the MIC50 [4, 27] is reported as 8 µg/mL (≈ 18 µM). The MIC90 [4, 27] was greater than 64 µg/mL, the MIC [5] was greater than 16 µg/mL and the MIC ([5]; Clostridium perfringens 3518) was greater than 16 µg/mL. The MIC [6] was 2 µg/mL (≈ 4.5 µM), the MIC [7] was 1 µg/mL (≈ 2.25 µM) and the MIC90 [8] was greater than 64 µg/mL. For the same compound, the MIC90 [9] was greater than 32 µg/mL, the MIC [10] was 2 µg/mL (≈ 4.5 µM) and the “MIC Range” value [11] was 1 to 2 µg/mL. For the same compound, the MIC [12] was 1 µg/mL (≈ 2.25 µM), the MIC [13] was 1 µg/mL (≈ 2.25 µM) and the “MIC Range” value [14] was 1 to 8 µg/mL. For the same compound, the MIC50 [15] was 0.5 µg/mL (≈ 1.13 µM), the MIC90 [15] was 4 µg/mL (≈ 9 µM) and the MIC50 [15, 28] was 1 µg/mL (≈ 2.25 µM). It also gave an MIC90 [15, 28] of 2 µg/mL (≈ 4.5 µM), an MIC ([16]; Prevotella spp. 3564) of 1 µg/mL (≈ 2.25 µM) and an MIC ([16]; Prevotella spp. 3568) of 4 µg/mL (≈ 9 µM). For the same compound, the MIC [17] was 2 µg/mL (≈ 4.5 µM), the MIC90 [18] was greater than 32 µg/mL and the MIC [19] was 8 µg/mL (≈ 18 µM). For the same compound, the MIC [20] was 1 µg/mL (≈ 2.25 µM), the MIC [21] was 2 µg/mL (≈ 4.5 µM) and the MIC50 [22] was 64 µg/mL (≈ 144 µM). For the same compound, the MIC50 [23] was 2 µg/mL (≈ 4.5 µM), the MIC90 [23] was greater than 64 µg/mL and the MIC50 [24] was 1 µg/mL (≈ 2.25 µM). The MIC90 [24] was greater than 64 µg/mL, the MIC50 ([24]; VRE) was 2 µg/mL (≈ 4.5 µM) and the MIC90 ([24]; VRE) was greater than 64 µg/mL. It also gave an MIC90 [25] greater than 64 µg/mL and an MIC [26] of 2 µg/mL (≈ 4.5 µM).
